Experimental data published in patent publication US20260256738A1, “METHODS OF TREATING CANCER WITH A RAS MUTATION” (Immuneering Corporation, priority 2023, published 2026).
pIC50: −log10 of the molar value.

Columns and labels:
[1] = Microsome Stability (% remaining @1 hour); format: in vitro ADME; settings: SD Rat; 2 μM
[2] = target: hERG Channel (Homo sapiens, UniProt Q12809); test: biochemical
[3] = Microsome Stability (% remaining @1 hour); settings: CD-1 Mouse; 2 μM
[4] = test system: Caco-2; test: Caco-2 permeability; settings: 10 μM, 2 hrs
[5] = Plasma Stability (% remaining @2 hour); format: in vitro ADME; settings: CD-1 Mouse; 2 μM
[6] = Plasma Stability (% remaining @2 hour); format: in vitro ADME; settings: SD Rat; 2 μM
[7] = target: CYP450 2D6 (Homo sapiens, UniProt P10635); test: CYP450 Panel; settings: 10 μM; substrate dextromethorphan; in % (unit assumed)
[8] = target: CYP450 2C9 (Homo sapiens, UniProt P11712); test: CYP450 Panel; format: in vitro ADME; settings: 10 μM; substrate Diclofenac; in % (unit assumed)
[9] = target: T1, CYP450 1A2 (Homo sapiens, UniProt P05177); test: CYP450 Panel; settings: 10 μM; substrate phenacetin; in % (unit assumed)
T1 sequence (P05177 1-516): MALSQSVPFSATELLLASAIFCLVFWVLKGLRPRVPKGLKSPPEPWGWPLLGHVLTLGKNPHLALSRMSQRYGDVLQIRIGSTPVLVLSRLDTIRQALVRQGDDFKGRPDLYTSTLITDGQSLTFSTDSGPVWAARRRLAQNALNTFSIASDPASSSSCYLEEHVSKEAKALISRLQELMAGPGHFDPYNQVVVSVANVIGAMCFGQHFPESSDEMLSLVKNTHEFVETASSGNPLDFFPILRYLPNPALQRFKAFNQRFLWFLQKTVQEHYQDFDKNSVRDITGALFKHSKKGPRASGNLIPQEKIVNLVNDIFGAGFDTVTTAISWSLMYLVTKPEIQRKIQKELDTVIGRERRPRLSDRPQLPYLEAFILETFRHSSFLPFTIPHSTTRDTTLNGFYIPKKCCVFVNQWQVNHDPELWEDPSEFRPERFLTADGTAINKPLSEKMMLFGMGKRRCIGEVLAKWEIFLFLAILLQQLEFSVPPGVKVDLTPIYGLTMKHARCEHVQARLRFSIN

[10] = test system: Colon-26 KRAS-G12D tumor; test: Colon-26 Model (KRAS G12D CRC): Efficacy & Safety; format: in vivo; settings: Colon-26 KRAS-G12D in Balb/c
Experimental: Female athymic BALB/c nude or BALB/c mice (Beijing Vital River Laboratory Animal Technology Co., Ltd.), approximately 8-10 weeks old were used in these studies. Animals were maintained in individually vented cages on a 12-h light-dark cycle. Food and water were available ad libitum. The Colon-26 tumor cells were maintained in vitro with RPMI1640 medium supplemented with 10% fetal bovine serum at 37° C. in an atmosphere of 5% CO2 in air. The cells in exponential growth phase were harvested and quantitated by cell counter before tumor inoculation. […] Randomization was started when the mean tumor size reached approximately 125 mm^3. A total of 84 tumor-bearing mice were enrolled in the study and allocated into 7 treatment groups (12 mice per group). Also 12 non-tumor-bearing mice were assigned as un-treated group.
Animals were treated with either vehicle (10% DMSO/90% [20% SBE-β-CD in saline], pH 5) or vehicle containing compounds at the indicated doses by gavage (p.o.) twice daily for approximately 28-42 days (BID×28-42 p.o.), or to ethical endpoints (BWL>20%; Median Tumor Volume (MTV)>2000 mm^3; Individual TV>3000 mm^3; clinical signs of unwell). Clinical signs of unwell was characterized, but not limited to the following. Severe dehydration, hypothermia, abnormal/labored respiration, lethargy, obvious pain, diarrhea, skin lesions, neurological symptoms, impaired mobility (not able to eat or drink) due to significant ascites and enlarged abdomen, astasia, continuous prone or lateral position, signs of muscular atrophy, paralytic gait, clonic convulsions, tonic convulsions, persistent bleeding from body orifice. Dosing as well as tumor and body weight measurements were conducted in a Laminar Flow Cabinet.
Animals were checked daily for morbidity and mortality. During routine monitoring, the animals were checked for any effects of tumor growth and treatments on behavior such as mobility, food and water consumption, body weight gain/loss (body weights were measured twice per week after randomization), eye/hair matting and any other abnormalities. Mortality and observed clinical signs were recorded for individual animals in detail.
Tumor volumes were measured twice per week after randomization in two dimensions using a caliper, and the volume was expressed in mm3 using the formula: V=(L×W×W)/2, where V is tumor volume, L is tumor length (the longest tumor dimension) and W is tumor width (the longest tumor dimension perpendicular to L). Results were presented as the median tumor volume, expressed in mm^3+/−interquartile range, of each group. Tumor Growth Inhibition; TGI %=[1−(Ti/(Ci)]×100; where Ti as the median tumor volume of the treatment group on the measurement day, Ci as the median tumor volume of control group at the measurement day.
The body weights and tumor volumes were measured by using StudyDirector™ software (version 3.1.399.19).
The protocol and any amendment(s) or procedures involving the care and use of animals in this study were reviewed and approved by the Institutional Animal Care and Use Committee (IACUC) of CrownBio prior to execution. During the study, the care and use of animals were conducted in accordance with the regulations of the Association for Assessment and Accreditation of Laboratory Animal Care (AAALAC).

[11] = Plasma Stability (% remaining @2 hour); format: in vitro ADME; settings: Beagle Dog; 2 μM

Chain of CYP450 2D6 (P10635 whole entry): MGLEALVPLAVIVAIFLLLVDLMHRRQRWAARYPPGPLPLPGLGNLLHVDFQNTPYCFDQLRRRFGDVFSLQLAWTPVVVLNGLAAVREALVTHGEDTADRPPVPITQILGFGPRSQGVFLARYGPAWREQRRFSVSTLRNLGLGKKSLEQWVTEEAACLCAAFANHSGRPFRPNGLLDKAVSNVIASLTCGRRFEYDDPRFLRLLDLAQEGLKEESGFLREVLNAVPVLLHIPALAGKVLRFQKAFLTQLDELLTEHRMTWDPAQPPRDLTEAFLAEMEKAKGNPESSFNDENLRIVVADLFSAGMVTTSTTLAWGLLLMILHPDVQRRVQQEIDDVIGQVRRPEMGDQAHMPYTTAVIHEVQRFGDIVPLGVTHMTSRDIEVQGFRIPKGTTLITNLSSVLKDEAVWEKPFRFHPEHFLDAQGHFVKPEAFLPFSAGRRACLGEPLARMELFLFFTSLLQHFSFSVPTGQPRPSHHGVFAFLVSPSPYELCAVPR
Chain of hERG Channel (Q12809 whole entry): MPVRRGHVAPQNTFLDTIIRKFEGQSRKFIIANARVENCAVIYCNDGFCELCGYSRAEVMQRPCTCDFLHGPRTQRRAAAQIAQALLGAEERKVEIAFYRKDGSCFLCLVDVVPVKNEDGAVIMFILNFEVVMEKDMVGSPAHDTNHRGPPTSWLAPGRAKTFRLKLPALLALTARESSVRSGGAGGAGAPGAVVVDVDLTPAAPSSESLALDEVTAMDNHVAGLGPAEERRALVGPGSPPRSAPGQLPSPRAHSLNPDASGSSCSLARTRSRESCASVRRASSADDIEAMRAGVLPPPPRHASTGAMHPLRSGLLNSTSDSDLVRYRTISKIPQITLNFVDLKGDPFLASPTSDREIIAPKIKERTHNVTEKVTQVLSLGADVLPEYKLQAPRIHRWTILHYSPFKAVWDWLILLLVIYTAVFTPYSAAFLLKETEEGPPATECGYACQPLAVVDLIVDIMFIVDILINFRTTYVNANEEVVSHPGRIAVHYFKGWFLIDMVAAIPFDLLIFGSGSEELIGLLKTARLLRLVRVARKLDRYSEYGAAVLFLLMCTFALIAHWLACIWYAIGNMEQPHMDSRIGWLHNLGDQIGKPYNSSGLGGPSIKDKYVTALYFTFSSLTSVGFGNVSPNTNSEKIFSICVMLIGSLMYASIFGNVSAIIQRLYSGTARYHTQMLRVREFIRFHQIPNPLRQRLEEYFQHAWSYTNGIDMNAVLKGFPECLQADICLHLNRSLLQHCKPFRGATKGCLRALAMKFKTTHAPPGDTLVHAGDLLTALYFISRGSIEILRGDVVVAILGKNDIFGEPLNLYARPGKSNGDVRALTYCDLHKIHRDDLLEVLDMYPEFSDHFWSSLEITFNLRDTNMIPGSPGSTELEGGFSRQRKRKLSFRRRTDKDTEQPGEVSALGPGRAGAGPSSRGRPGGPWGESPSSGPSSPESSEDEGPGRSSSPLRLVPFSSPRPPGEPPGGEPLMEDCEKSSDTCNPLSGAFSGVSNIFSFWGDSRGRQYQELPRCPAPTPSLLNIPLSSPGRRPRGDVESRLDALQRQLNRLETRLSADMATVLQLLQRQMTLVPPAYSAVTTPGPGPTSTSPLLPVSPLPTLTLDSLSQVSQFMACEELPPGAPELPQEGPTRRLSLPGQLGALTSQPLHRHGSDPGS
Chain of CYP450 2C9 (P11712 whole entry): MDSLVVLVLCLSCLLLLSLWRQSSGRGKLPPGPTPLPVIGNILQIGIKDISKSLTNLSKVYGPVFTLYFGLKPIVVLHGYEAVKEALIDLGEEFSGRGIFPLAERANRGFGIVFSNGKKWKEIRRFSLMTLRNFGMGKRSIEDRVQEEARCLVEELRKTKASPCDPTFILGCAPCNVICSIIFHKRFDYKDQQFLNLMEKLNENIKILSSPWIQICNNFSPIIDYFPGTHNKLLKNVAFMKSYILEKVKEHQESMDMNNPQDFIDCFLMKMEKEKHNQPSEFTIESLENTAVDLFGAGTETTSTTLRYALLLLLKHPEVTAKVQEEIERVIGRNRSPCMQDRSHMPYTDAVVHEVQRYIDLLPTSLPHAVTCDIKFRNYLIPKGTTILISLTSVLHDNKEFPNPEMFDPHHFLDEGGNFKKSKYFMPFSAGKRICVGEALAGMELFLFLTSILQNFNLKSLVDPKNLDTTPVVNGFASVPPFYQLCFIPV

## CNS(=O)(=O)Nc1cccc(Cc2c(CN(C)C)c3ccc(OC(=O)N(C)C)cc3oc2=O)c1F [Compound A, 4-((dimethylamino)methyl)-3-(2-fluoro-3-((N-methylsulfamoyl)amino)benzyl)-2-oxo-2H-chromen-7-yl dimethylcarbamate]
[1]
  Microsome stability, % Remaining @1 hour: 28.8%
[2]
  pIC50: 4.58
[3]
  Microsome stability, % Remaining @1 hour: 54.3%
[4]
  A − B Permeability Ranking: High
  Mean Papp A − B: 13.0 10^−6 cm/s
  Mean Papp B − A: 21.0 10^−6 cm/s
[5]
  Plasma stability, % Remaining @2 hour: 90.6%
[6]
  Plasma stability, % Remaining @2 hour: 106.4%
[7]
  CYP450 Panel 2D6: −3.7
[8]
  CYP450 Panel 2C9: 6.8
[9]
  CYP450 Panel 1A2: 4.8
[10]; 150 mg/kg BID po
  BWL (Day 14): 0%
  BWL (Day 17): 0%
  TGI (Day 10): 93.9%
[11]
  Plasma stability, % Remaining @2 hour: 96.8%

## Cn1cnc2c(F)c(Nc3ccc(Br)cc3Cl)c(C(=O)NOCCO)cc21 [Reference 1, Selumetinib]
[1]
  Microsome stability, % Remaining @1 hour: 54.6%
[2]
  pIC50: < 4.52
[3]
  Microsome stability, % Remaining @1 hour: 13.9%
[4]
  A − B Permeability Ranking: High
[5]
  Plasma stability, % Remaining @2 hour: 104.8%
[6]
  Plasma stability, % Remaining @2 hour: 94.9%
[7]
  CYP450 Panel 2D6: 5.0
[8]
  CYP450 Panel 2C9: 14.1
[9]
  CYP450 Panel 1A2: 8.3
[10]; 50 mg/kg BID po
  BWL (Day 14): 0%
  BWL (Day 17): −2%
[11]
  Plasma stability, % Remaining @2 hour: 100.4%
